# The supplement of paper PMC11208160
# Experiment: recombinant barcode read abundance after kanamycin selection (control-corrected) (log10(CPM+1)); higher = more efficient recombination; sequences stand for … in AGTGCAGAGAAAATCGGCCAGTTTTCTCTGCCTGCAGTCCGCATGCCGT…AGATTTATGCAGCGGACTGCCTTTCTCCCAAAGTGATAAACCGGACAGTATCATGGACCGGTTTTCCCGGTAATCCGTATTTGCAAGGTTGGTTTCACT; site = the 11-nt target
# Summary of the method: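 Pooled E. coli screen pairing targets with IS621 bridge RNA target-binding loops. Each oligo (promoter, target, barcode, J23119-driven first 104 bridge RNA bases) was Gibson-cloned into a vector with the remaining 73 bp and T7-inducible recombinase, then co-electroporated with a donor plasmid. Two replicates each were plated on chloramphenicol/ampicillin LB agar (control) or chloramphenicol/ampicillin/kanamycin with 0.1 mM IPTG. Recombination efficiency is recombinant-junction barcode counts as CPM, averaged, control-corrected, reported as log10(CPM+1).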
# 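Also: IS621 recombinase and bridge RNA in Escherichia coli cells.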
row,Sequence,recombinant barcode read abundance (log10)
1,GGAGTGACTTGGGTTCTAACCTGTTGCTA (site GGAGTGACTTA),1.61
2,GGATAGCCTTGGGTTCTAACCTGTTGCTT (site GGATAGCCTAA),0.939
3,GGATAGCCTTGGGTTCTAACCTGTTGCTT (site GGATGGACTAA),0.17
4,GGATATACTTGGGTTCTAACCTGTTGCCT (site GGATATACTAG),1.47
5,GGATATACTTGGGTTCTAACCTGTTGCCT (site GGATTTACTAG),0.186
6,GGATATCCTTGGGTTCTAACCTGTTGCTT (site CAGGTGACTCC),0
7,GGATATCCTTGGGTTCTAACCTGTTGCTT (site GGATATCCTAA),0.284
8,GGATCCTCTTGGGTTCTAACCTGTTGCCG (site GGATCCTCTCG),1.45
9,GGATCCTCTTGGGTTCTAACCTGTTGCCG (site GTTTCCTCTCG),0.0317
10,GGATGCACTTGGGTTCTAACCTGTTGCCA (site GGATACACTTG),0.237
11,GGATGCACTTGGGTTCTAACCTGTTGCCA (site GGATCCACTTG),0.00874
12,GGATGCACTTGGGTTCTAACCTGTTGCCA (site GGATGCACTTG),0.953
13,GGATGCACTTGGGTTCTAACCTGTTGCCA (site GGATTCACTTG),0.319
14,GGATGTCCTTGGGTTCTAACCTGTTGCGT (site CTATGTCCTAC),0.29
15,GGATGTCCTTGGGTTCTAACCTGTTGCGT (site GGATGTCCTAC),1.95
16,GGATTCACTTGGGTTCTAACCTGTTGCCA (site GGATACACTTG),0.0986
17,GGATTCACTTGGGTTCTAACCTGTTGCCA (site GGATCCACTTG),0.0631
18,GGATTCACTTGGGTTCTAACCTGTTGCCA (site GGATGCACTTG),0.925
19,GGATTCACTTGGGTTCTAACCTGTTGCCA (site GGATTCACTTG),0.992
20,GGCACGACTTGGGTTCTAACCTGTTGCCT (site GGCACAACTAG),0.274
21,GGCACGACTTGGGTTCTAACCTGTTGCCT (site GGCACCACTAG),0.221
22,GGCACGACTTGGGTTCTAACCTGTTGCCT (site GGCACGACTAG),0.323

row,Sequence,recombinant barcode read abundance (log10)
1,GGCACGACTTGGGTTCTAACCTGTTGCCT (site GGCACTACTAG),0.0541
2,GGCACTCCTTGGGTTCTAACCTGTTGCCT (site GGCACTCCTAG),0.351
3,GGCACTCCTTGGGTTCTAACCTGTTGCCT (site GGCATTCCTAG),0.171
4,GGCACTGCTTGGGTTCTAACCTGTTGCCT (site GGCACAGCTAG),0.332
5,GGCACTGCTTGGGTTCTAACCTGTTGCCT (site GGCACCGCTAG),0.123
6,GGCACTGCTTGGGTTCTAACCTGTTGCCT (site GGCACGGCTAG),0.189
7,GGCACTGCTTGGGTTCTAACCTGTTGCCT (site GGCACTGCTAG),0.34
8,GGCAGATCTTGGGTTCTAACCTGTTGCTT (site GGCAGATCTAA),0.193
9,GGCAGATCTTGGGTTCTAACCTGTTGCTT (site GGCAGCTCTAA),0.043
10,GGCAGATCTTGGGTTCTAACCTGTTGCTT (site GGCAGGTCTAA),0.0248
11,GGCAGATCTTGGGTTCTAACCTGTTGCTT (site GGCAGTTCTAA),0.9
12,GGCAGTCCTTGGGTTCTAACCTGTTGCCG (site GGCAGACCTAG),0.169
13,GGCAGTCCTTGGGTTCTAACCTGTTGCCG (site GGCAGTCCTCG),0.364
14,GGCAGTCCTTGGGTTCTAACCTGTTGCTT (site GGCAGTCCTAA),0.336
15,GGCAGTCCTTGGGTTCTAACCTGTTGCTT (site GGCAGTCCTAG),0.252
16,GGCCGGCCTTGGGTTCTAACCTGTTGCCT (site GGCCGGACTAG),0.0681
17,GGCCGGCCTTGGGTTCTAACCTGTTGCCT (site GGCCGGCCTAG),0.128
18,GGCCGGCCTTGGGTTCTAACCTGTTGCCT (site GGCCGGGCTAG),1.02
19,GGCCGGCCTTGGGTTCTAACCTGTTGCCT (site GGCCGGTCTAG),0.191
20,GGCCGGTCTTGGGTTCTAACCTGTTGCCT (site GGCCGGACTAG),0
21,GGCCGGTCTTGGGTTCTAACCTGTTGCCT (site GGCCGGCCTAG),0.248
22,GGCCGGTCTTGGGTTCTAACCTGTTGCCT (site GGCCGGGCTAG),0.0483

row,Sequence,recombinant barcode read abundance (log10)
1,GGCCGGTCTTGGGTTCTAACCTGTTGCCT (site GGCCGGTCTAG),1.78
2,GGCGTAGCTTGGGTTCTAACCTGTTGCCT (site GACGTAGCTAG),0.416
3,GGCGTAGCTTGGGTTCTAACCTGTTGCCT (site GCCGTAGCTAG),0.624
4,GGCGTAGCTTGGGTTCTAACCTGTTGCCT (site GGCGTAGCTAG),2.37
5,GGCGTAGCTTGGGTTCTAACCTGTTGCCT (site GTCGTAGCTAG),0.227
6,GGCTCCTCTTGGGTTCTAACCTGTTGCCT (site AGCTCCTCTAG),0.849
7,GGCTCCTCTTGGGTTCTAACCTGTTGCCT (site CGCTCCTCTAG),0.0966
8,GGCTCCTCTTGGGTTCTAACCTGTTGCCT (site GGCTCCTCTAG),0.733
9,GGCTCCTCTTGGGTTCTAACCTGTTGCCT (site TGCTCCTCTAG),0.0949
10,GGCTTACCTTGGGTTCTAACCTGTTGCCT (site AGCTTACCTAG),0.0239
11,GGCTTACCTTGGGTTCTAACCTGTTGCCT (site CGCTTACCTAG),0.0687
12,GGCTTACCTTGGGTTCTAACCTGTTGCCT (site GGCTTACCTAG),0.556
13,GGCTTACCTTGGGTTCTAACCTGTTGCCT (site TGCTTACCTAG),0.395
14,GGCTTGTCTTGGGTTCTAACCTGTTGCCT (site GGCATGTCTAG),0.0663
15,GGCTTGTCTTGGGTTCTAACCTGTTGCCT (site GGCTTGTCTAG),0.655
16,GGGAACGCTTGGGTTCTAACCTGTTGCCT (site GGGAACGCTAG),2.85
17,GGGAACGCTTGGGTTCTAACCTGTTGCCT (site GGGAATGCTAG),0.0432
18,GGGACATCTTGGGTTCTAACCTGTTGCCT (site GGGACATCTAG),0.987
19,GGGACATCTTGGGTTCTAACCTGTTGCCT (site GGGGCATCTAG),0.015
20,GGGACCACTTGGGTTCTAACCTGTTGCTA (site GGGACCACTTA),1.77
21,GGGACCACTTGGGTTCTAACCTGTTGCTA (site TTCGGACCTCC),0.0578
22,GGGACCTCTTGGGTTCTAACCTGTTGCTC (site GGGACCTCTGA),1.24

row,Sequence,recombinant barcode read abundance (log10)
1,GGGACCTCTTGGGTTCTAACCTGTTGCTC (site GTGACCTCTCA),0.167
2,GGGACGACTTGGGTTCTAACCTGTTGCTA (site GGGACGACTAA),0.161
3,GGGACGACTTGGGTTCTAACCTGTTGCTA (site GGGACGACTTA),1.35
4,GGGATACCTTGGGTTCTAACCTGTTGCCT (site GCGTTACCTAG),0.0414
5,GGGATACCTTGGGTTCTAACCTGTTGCCT (site GGGATACCTAG),2.6
6,GGGCACTCTTGGGTTCTAACCTGTTGCAT (site GGGCACTCTAA),0.75
7,GGGCACTCTTGGGTTCTAACCTGTTGCAT (site GGGCACTCTAC),0.132
8,GGGCACTCTTGGGTTCTAACCTGTTGCAT (site GGGCACTCTAG),0.606
9,GGGCACTCTTGGGTTCTAACCTGTTGCAT (site GGGCACTCTAT),2.22
10,GGGCACTCTTGGGTTCTAACCTGTTGCCT (site GGGCACTCTAA),0.122
11,GGGCACTCTTGGGTTCTAACCTGTTGCCT (site GGGCACTCTAC),0.0754
12,GGGCACTCTTGGGTTCTAACCTGTTGCCT (site GGGCACTCTAG),1.22
13,GGGCACTCTTGGGTTCTAACCTGTTGCCT (site GGGCACTCTAT),0.585
14,GGGCACTCTTGGGTTCTAACCTGTTGCTT (site GGGCACTCTAA),1.93
15,GGGCACTCTTGGGTTCTAACCTGTTGCTT (site GGGCACTCTAC),0.503
16,GGGCACTCTTGGGTTCTAACCTGTTGCTT (site GGGCACTCTAG),1.35
17,GGGCACTCTTGGGTTCTAACCTGTTGCTT (site GGGCACTCTAT),1.54
18,GGGCAGGCTTGGGTTCTAACCTGTTGCCT (site ATCGTATCTGC),0.189
19,GGGCAGGCTTGGGTTCTAACCTGTTGCCT (site GGGCAGGCTAG),0.969
20,GGGCCCGCTTGGGTTCTAACCTGTTGCTA (site GGGCCCGCTTA),1.68
